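Five concentrations, 48 hours, 96-well plates. The concentration for full growth arrest is given as TGI.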
Assays:
Experiment in all cases: NCI-60 cell line screen, 48 h
786-0 renal = system: 786-0 renal
A498 renal = system: A498 renal
A549 NSCLC = system: A549 NSCLC
ACHN renal = system: ACHN renal
BT-549 breast = system: BT-549 breast
CAKI-1 renal = system: CAKI-1 renal
CCRF-CEM leukemia = system: CCRF-CEM leukemia
COLO 205 colon = system: COLO 205 colon
DU-145 prostate = system: DU-145 prostate
EKVX NSCLC = system: EKVX NSCLC
HCC-2998 colon = system: HCC-2998 colon
HCT-116 colon = system: HCT-116 colon
HCT-15 colon = system: HCT-15 colon
HL-60(TB) leukemia = system: HL-60(TB) leukemia
HOP-62 NSCLC = system: HOP-62 NSCLC
HT29 colon = system: HT29 colon
IGROV1 ovarian = system: IGROV1 ovarian
K-562 leukemia = system: K-562 leukemia
KM12 colon = system: KM12 colon
M14 melanoma = system: M14 melanoma
MALME-3M melanoma = system: MALME-3M melanoma
MCF7 breast = system: MCF7 breast
MDA-MB-231 breast = system: MDA-MB-231 breast
MDA-MB-435 = system: MDA-MB-435
MDA-N = system: MDA-N
MOLT-4 leukemia = system: MOLT-4 leukemia
NCI-H460 lung = system: NCI-H460 lung
NCI/ADR-RES ovarian = system: NCI/ADR-RES ovarian
OVCAR-3 ovarian = system: OVCAR-3 ovarian
OVCAR-5 ovarian = system: OVCAR-5 ovarian
OVCAR-8 ovarian = system: OVCAR-8 ovarian
PC-3 prostate = system: PC-3 prostate
RPMI-8226 leukemia = system: RPMI-8226 leukemia
RXF 393 renal = system: RXF 393 renal
SF-268 CNS = system: SF-268 CNS
SF-295 CNS = system: SF-295 CNS
SF-539 CNS = system: SF-539 CNS
SK-MEL-2 melanoma = system: SK-MEL-2 melanoma
SK-MEL-28 melanoma = system: SK-MEL-28 melanoma
SK-MEL-5 melanoma = system: SK-MEL-5 melanoma
SK-OV-3 ovarian = system: SK-OV-3 ovarian
SN12C renal = system: SN12C renal
SNB-19 CNS = system: SNB-19 CNS
SNB-75 CNS = system: SNB-75 CNS
SR leukemia = system: SR leukemia
SW-620 colon = system: SW-620 colon
T-47D breast = system: T-47D breast
TK-10 renal = system: TK-10 renal
U251 CNS = system: U251 CNS
UACC-257 melanoma = system: UACC-257 melanoma
UACC-62 melanoma = system: UACC-62 melanoma
UO-31 renal = system: UO-31 renal
HOP-92 NSCLC = system: HOP-92 NSCLC
LOX IMVI melanoma = system: LOX IMVI melanoma
NCI-H226 lung = system: NCI-H226 lung
NCI-H23 lung = system: NCI-H23 lung
OVCAR-4 ovarian = system: OVCAR-4 ovarian

C/C1=C\CC[C@@]2(C)O[C@@H]2C[C@@H]2[C@H](C/C(C)=C/CC1)OC(=O)C21CC1
TGI (786-0 renal): > 100 µM
TGI (A498 renal): > 100 µM
TGI (A549 NSCLC): > 100 µM
TGI (ACHN renal): > 100 µM
TGI (BT-549 breast): > 100 µM
TGI (CAKI-1 renal): > 100 µM
TGI (CCRF-CEM leukemia): 65.8 µM
TGI (COLO 205 colon): > 100 µM
TGI (DU-145 prostate): > 100 µM
TGI (EKVX NSCLC): > 100 µM
TGI (HCC-2998 colon): > 100 µM
TGI (HCT-116 colon): > 100 µM
TGI (HCT-15 colon): > 100 µM
TGI (HL-60(TB) leukemia): 93.7 µM
TGI (HOP-62 NSCLC): > 100 µM
TGI (HT29 colon): > 100 µM
TGI (IGROV1 ovarian): 72.7 µM
TGI (K-562 leukemia): 66.2 µM
TGI (KM12 colon): > 100 µM
TGI (M14 melanoma): > 100 µM
TGI (MALME-3M melanoma): > 100 µM
TGI (MCF7 breast): > 100 µM
TGI (MDA-MB-231 breast): > 100 µM
TGI (MDA-MB-435): > 100 µM
TGI (MDA-N): > 100 µM
TGI (MOLT-4 leukemia): 61.2 µM
TGI (NCI-H460 lung): > 100 µM
TGI (NCI/ADR-RES ovarian): > 100 µM
TGI (OVCAR-3 ovarian): > 100 µM
TGI (OVCAR-5 ovarian): > 100 µM
TGI (OVCAR-8 ovarian): > 100 µM
TGI (PC-3 prostate): > 100 µM
TGI (RPMI-8226 leukemia): 46.3 µM
TGI (RXF 393 renal): > 100 µM
TGI (SF-268 CNS): > 100 µM
TGI (SF-295 CNS): > 100 µM
TGI (SF-539 CNS): > 100 µM
TGI (SK-MEL-2 melanoma): > 100 µM
TGI (SK-MEL-28 melanoma): > 100 µM
TGI (SK-MEL-5 melanoma): > 100 µM
TGI (SK-OV-3 ovarian): > 100 µM
TGI (SN12C renal): > 100 µM
TGI (SNB-19 CNS): > 100 µM
TGI (SNB-75 CNS): > 100 µM
TGI (SR leukemia): 48 µM
TGI (SW-620 colon): > 100 µM
TGI (T-47D breast): > 100 µM
TGI (TK-10 renal): > 100 µM
TGI (U251 CNS): > 100 µM
TGI (UACC-257 melanoma): > 100 µM
TGI (UACC-62 melanoma): > 100 µM
TGI (UO-31 renal): > 100 µM

COC(=O)C1(C(=O)OC)N=C(C)OC1c1ccoc1 (stereo not drawn)
TGI (786-0 renal): > 100 µM
TGI (A498 renal): > 100 µM
TGI (A549 NSCLC): > 100 µM
TGI (ACHN renal): > 100 µM
TGI (BT-549 breast): > 100 µM
TGI (CAKI-1 renal): > 100 µM
TGI (CCRF-CEM leukemia): > 100 µM
TGI (COLO 205 colon): > 100 µM
TGI (DU-145 prostate): > 100 µM
TGI (EKVX NSCLC): > 100 µM
TGI (HCC-2998 colon): > 100 µM
TGI (HCT-116 colon): > 100 µM
TGI (HCT-15 colon): > 100 µM
TGI (HL-60(TB) leukemia): > 100 µM
TGI (HOP-62 NSCLC): > 100 µM
TGI (HOP-92 NSCLC): > 100 µM
TGI (K-562 leukemia): > 100 µM
TGI (KM12 colon): > 100 µM
TGI (LOX IMVI melanoma): > 100 µM
TGI (M14 melanoma): > 100 µM
TGI (MCF7 breast): > 100 µM
TGI (MDA-MB-435): > 100 µM
TGI (MDA-N): > 100 µM
TGI (MOLT-4 leukemia): > 100 µM
TGI (NCI-H226 lung): > 100 µM
TGI (NCI-H23 lung): > 100 µM
TGI (NCI-H460 lung): > 100 µM
TGI (NCI/ADR-RES ovarian): > 100 µM
TGI (OVCAR-3 ovarian): > 100 µM
TGI (OVCAR-4 ovarian): > 100 µM
TGI (OVCAR-5 ovarian): > 100 µM
TGI (OVCAR-8 ovarian): > 100 µM
TGI (PC-3 prostate): > 100 µM
TGI (RPMI-8226 leukemia): > 100 µM
TGI (RXF 393 renal): > 100 µM
TGI (SF-295 CNS): > 100 µM
TGI (SK-MEL-2 melanoma): > 100 µM
TGI (SK-MEL-28 melanoma): > 100 µM
TGI (SK-MEL-5 melanoma): > 100 µM
TGI (SK-OV-3 ovarian): > 100 µM
TGI (SN12C renal): > 100 µM
TGI (SNB-19 CNS): > 100 µM
TGI (SNB-75 CNS): > 100 µM
TGI (SR leukemia): > 100 µM
TGI (SW-620 colon): > 100 µM
TGI (T-47D breast): > 100 µM
TGI (TK-10 renal): > 100 µM
TGI (U251 CNS): > 100 µM
TGI (UACC-257 melanoma): > 100 µM
TGI (UACC-62 melanoma): > 100 µM
TGI (UO-31 renal): > 100 µM

From PubChem BioAssay (NCI)
